{"source": "patent US10344034B2", "about": "“Pyrazolopyrimidone or Pyrrolotriazone derivatives, method of preparing same, and pharmaceutical applications thereof” (Shanghai Hengrui Pharmaceutical Co., Ltd., priority 2013, dated 2019)", "key": {"[1]": {"experiment": "Rat pharmacokinetics assay", "assay_type": "in vivo, Sprague-Dawley (SD) rats", "conditions": "for AUC: read-out: Area under curve AUC; for half-life: read-out: Half-life T1/2 (converted); for MRT: read-out: Residence time MRT", "protocol": "Test Example 4. Rat pharmacokinetics assay of the compounds of Example 2, Example 3, Example 5, Example 9, Example 10, Example 11, and Example 13 of the present invention.\nSprague-Dawley (SD) rats were used as test animals. The plasma concentrations at various times were determined by LC/MS/MS after intragastric administration of compounds of Example 2, Example 3, Example 5, Example 9, Example 10, Example 11, and Example 13, and intravenous administration of the compound of Example 11 to the rats. The pharmacokinetic behavior of the present compounds in rats was studied, and the pharmacokinetic features were evaluated.\nThirty-two (32) healthy adult SD rats (half female and half male) were evenly designated into 8 groups (4 for each group). The animals were purchased from Shanghai Super B&K Laboratory Animal Corp. Ltd (laboratory animal production Certificate No. SCXK (HU)2008-0016).\nAn appropriate amount of sample was weighed, and added with 0.5% CMC-Na to form a 1 mg/ml suspension upon ultrasonic treatment.\nAppropriate amounts of drugs were weighed, and dissolved with 0.5 ml DMSO and 0.5 ml of Tween 80. Saline solution was added to the final volume.\nThirty-two (32) SD rats (half female and half male) were evenly designated into 8 groups (4 for each group), and administered by oral gavage or intravenous injection (i.v.) (oral gavage at a dosage of 10 mg/kg or 30 mg/kg, and i.v. at a dosage of 5.0 mg/kg), respectively, at a volume of 10 ml/kg after fasting overnight.\n0.1 ml of blood was sampled before, and 0.5, 1, 2, 4, 6, 8, 11, and 24 hours after administration, collected in a heparinized test tube, and centrifuged at 3500 rpm for 10 minutes to separate the plasma, which was stored at −20° C. The animals were allowed access to feed 2 hours after administration.\nThe content of the test compound in the plasma of rats after administration of the compound by oral gavage was determined by LC/MS/MS."}, "[2]": {"tested_on": "rabbit endometriosis model", "experiment": "In vivo pharmacodynamics test in rabbit endometriosis model", "quoted_text": "(§1) Fifteen (15) healthy New Zealand rabbits (female) were evenly designated into 3 groups.\n(§2) Rabbits were adaptive fed and quarantined for seven days, and subcutaneously injected with 30 μg/kg of estradiol benzoate once daily for two days before surgery. When the model was established, rabbits were anesthetized with 3% sodium pentobarbital, and laparotomized sterilely. Then, one side of the uterus was separated and ligated with the uterine mesorectum vessel. Then, a section of the uterus was cut off and put into a warm saline dish, and then dissected longitudinally and the myometrium and endometrium were separated. A section of endometrium (about 0.5 cm by0.5 cm) was seamed to the abdominal wall rich in blood vessels with the intimal surface facing toward the abdominal cavity. Three weeks after endometrium planting, the rabbits were laparotomized to check graft intimal size. […] Each group was administered by oral gavage once a day in a volume of 5 ml/kg, continuously for 28 days after successful modeling. Ultimately, the rabbit was weighed and the volume of ectopic endometrium was measured to evaluate the effect of the present compound on the endometrial activity."}, "[3]": {"experiment": "In vivo pharmacodynamics test in rabbit endometriosis model", "conditions": "female, New Zealand, rabbit, in vivo, po", "quoted_text": "as §1, §2"}, "[4]": {"experiment": "Seven-day toxicokinetic evaluation in rats", "set-up": "species or system SD rats", "conditions": "rat, in vivo; for AUC(0-inf): AUC0-∞; for MRT inf: MRT0-∞", "protocol": "Test Example 8. Seven-Day Toxicokinetic Evaluation of the Compound of Example 11 in Rats\nSD rats were used as test animals. The plasma concentration at various times was determined by LC/MS/MS after administration of the compound of Example 11 (SHR147280) by oral gavage for 7 days. The compound toxicity in rodents was preliminarily assessed according to the potential toxicity reaction and severity level of the body.\nTwenty-four (24) healthy adult SD rats (half female and half male) were evenly designated into 4 groups (6 for each group). The animals were purchased from Shanghai SLAC Laboratory Animal Corp. Ltd (laboratory animal production Certificate No. SCXK (HU) 2012-0002).\nAn appropriate amount of sample was accurately weighed, and added with some 0.5% CMC-Na to form an uniform suspension upon ultrasonicator grinding treatment, and then diluted to the final volume. The test sample solutions on day 1 and day 7 were kept for the determination of administration concentration of toxicokinetics.\nRepeat oral doses were 80, 240, and 720 mg/kg, and administration concentrations were 8, 24, and 72 mg/ml respectively. The dosing volume was 10 ml/kg once daily for 7 days.\nThe blood was sampled on day 1 and day 7 after administration with sampling time before, and 1, 2, 4, 8 and 24 hours after oral administration on day 1, as well as before, and 1, 2, 4, 8, 24 and 48 hours after oral administration on day 7. The blood sample was collected in a heparinized test tube, and centrifuged to separate the plasma, which was stored at −20° C. The content of the test compound in the plasma of rats after administration of the compound by oral gavage was determined by LC/MS/MS."}, "[5]": {"conditions": "both sexes, Sprague-Dawley, plasma, iv, i.v. 5 mg/kg"}, "[6]": {"conditions": "both sexes, Sprague-Dawley, plasma, oral 10 mg/kg"}}, "note": "Where two headings read alike, the source gives them in different places."}
{"smiles": "CONC(=O)Nc1ccc(-n2nc3c(c2CN(C)C)c(=O)n(-c2ccc(OC)nn2)c(=O)n3Cc2c(F)cccc2F)cc1", "note": "[Example 11, 1-(4-(7-(2,6-difluorobenzyl)-3-((dimethylamino)methyl)-5-(6-methoxypyridazin-3-yl)-4,6-dioxo-4,5,6,7-tetrahydro-2H-pyrazolo[3,4-d]pyrimidin-2-yl)phenyl)-3-methoxyurea]", "values": [{"measurement": "AUC", "setting": "[1]; [5]", "result": "2.67 ± 1.24", "unit": "µg·h/mL"}, {"measurement": "half-life", "setting": "[1]; [5]", "result": "1.59 ± 0.5", "unit": "h"}, {"measurement": "MRT", "setting": "[1]; [5]", "result": "2.25 ± 0.06", "unit": "h"}, {"measurement": "Vd/F", "setting": "[1]; both sexes, Sprague-Dawley, plasma, oral 10 mg/kg, read-out: Apparent volume of distribution Vz/F", "result": "3.29 ± 1.51", "unit": "L/kg"}, {"measurement": "AUC", "setting": "[1]; [6]", "result": "4.09 ± 1.44", "unit": "µg·h/mL"}, {"measurement": "CL/F", "setting": "[1]; both sexes, Sprague-Dawley, plasma, oral 10 mg/kg, read-out: Clearance rate CL/F", "result": "44.2 ± 13.4", "unit": "mL/min/kg"}, {"measurement": "half-life", "setting": "[1]; [6]", "result": "0.84 ± 0.18", "unit": "h"}, {"measurement": "Cmax", "setting": "[1]; both sexes, Sprague-Dawley, plasma, oral 10 mg/kg, read-out: Plasma concentration Cmax", "result": "2440 ± 873", "unit": "ng/mL"}, {"measurement": "MRT", "setting": "[1]; [6]", "result": "1.56 ± 0.34", "unit": "h"}, {"measurement": "Apparent volume of distribution Vz/F", "setting": "[1]; i.v. 5 mg/kg", "result": "4.929 ± 2.39", "unit": "L/kg"}, {"measurement": "Clearance rate CL/F", "setting": "[1]; i.v. 5 mg/kg", "result": "35.4 ± 12.5", "unit": "mL/min/kg"}, {"measurement": "inhibition for the ectopic endometrial volume", "setting": "[2]; 10 mg/kg oral once a day for 4 weeks", "result": "not obvious"}, {"measurement": "growth of ectopic endometrium", "setting": "[2]; 30 mg/kg oral once a day for 4 weeks, vs 0.5% CMC-Na control", "result": "significantly inhibited"}, {"measurement": "NOAEL at 28 days", "setting": "[3]", "result": 30, "unit": "mg/kg"}, {"measurement": "NOAEL at 7 days", "setting": "[4]; both sexes, SD, po", "result": 240, "unit": "mg/kg"}, {"measurement": "lethal dose", "setting": "[4]; both, SD, po, 7 days", "result": 720, "unit": "mg/kg"}, {"measurement": "CLz/F", "setting": "[4]; female, SD, 80 mg/kg", "result": 7.71, "unit": "mL/min/kg"}, {"measurement": "CLz/F", "setting": "[4]; female, SD, 240 mg/kg", "result": 5.82, "unit": "mL/min/kg"}, {"measurement": "AUC0-t", "setting": "[4]; female, SD, po, 80 mg/kg", "result": 282.074, "unit": "µg·h/mL"}, {"measurement": "AUC0-∞", "setting": "[4]; female, SD, po, 80 mg/kg", "result": 313.468, "unit": "µg·h/mL"}, {"measurement": "Cmax", "setting": "[4]; female, SD, po, 80 mg/kg", "result": 19550, "unit": "ng/mL"}, {"measurement": "MRT0-∞", "setting": "[4]; female, SD, po, 80 mg/kg", "result": 9.23, "unit": "h"}, {"measurement": "Vd/F", "setting": "[4]; female, SD, po, 80 mg/kg", "result": 2.09, "unit": "L/kg"}, {"measurement": "AUC0-t", "setting": "[4]; female, SD, po, 80 mg/kg, AUC0-t", "result": 173, "unit": "µg·h/mL"}, {"measurement": "AUC(0-inf)", "setting": "[4]; female, SD, po, 80 mg/kg", "result": 174, "unit": "µg·h/mL"}, {"measurement": "Cmax", "setting": "[4]; female, SD, po, 80 mg/kg, Cmax", "result": 17800, "unit": "ng/mL"}, {"measurement": "MRT inf", "setting": "[4]; female, SD, po, 80 mg/kg", "result": 5.82, "unit": "h"}, {"measurement": "AUC0-t", "setting": "[4]; female, SD, po, 240 mg/kg", "result": 790.873, "unit": "µg·h/mL"}, {"measurement": "AUC0-∞", "setting": "[4]; female, SD, po, 240 mg/kg", "result": 840.45, "unit": "µg·h/mL"}, {"measurement": "Cmax", "setting": "[4]; female, SD, po, 240 mg/kg", "result": 51150, "unit": "ng/mL"}, {"measurement": "MRT0-∞", "setting": "[4]; female, SD, po, 240 mg/kg", "result": 7.97, "unit": "h"}, {"measurement": "Vd/F", "setting": "[4]; female, SD, po, 240 mg/kg", "result": 2.87, "unit": "L/kg"}, {"measurement": "t1/2", "setting": "[4]; female, SD, po, 240 mg/kg", "result": 4.26, "unit": "h"}, {"measurement": "tmax", "setting": "[4]; female, SD, po, 240 mg/kg", "result": 6.0, "unit": "h"}, {"measurement": "AUC0-t", "setting": "[4]; female, SD, po, 240 mg/kg, AUC0-t", "result": 639, "unit": "µg·h/mL"}, {"measurement": "AUC(0-inf)", "setting": "[4]; female, SD, po, 240 mg/kg", "result": 690, "unit": "µg·h/mL"}, {"measurement": "Cmax", "setting": "[4]; female, SD, po, 240 mg/kg, Cmax", "result": 41500, "unit": "ng/mL"}, {"measurement": "MRT inf", "setting": "[4]; female, SD, po, 240 mg/kg", "result": 9.63, "unit": "h"}, {"measurement": "half-life", "setting": "[4]; female, SD, po, 240 mg/kg, t1/2", "result": 5.73, "unit": "h"}, {"measurement": "tmax", "setting": "[4]; female, SD, po, 240 mg/kg, tmax", "result": 8, "unit": "h"}, {"measurement": "AUC0-t", "setting": "[4]; female, SD, po, 720 mg/kg", "result": 2838.65, "unit": "µg·h/mL"}, {"measurement": "Cmax", "setting": "[4]; female, SD, po, 720 mg/kg", "result": 138000, "unit": "ng/mL"}, {"measurement": "tmax", "setting": "[4]; female, SD, po, 720 mg/kg", "result": 24.0, "unit": "h"}, {"measurement": "AUC0-t", "setting": "[4]; female, SD, po, 720 mg/kg, AUC0-t", "result": 1550, "unit": "µg·h/mL"}, {"measurement": "Cmax", "setting": "[4]; female, SD, po, 720 mg/kg, Cmax", "result": 69300, "unit": "ng/mL"}, {"measurement": "tmax", "setting": "[4]; female, SD, po, 720 mg/kg, tmax", "result": 16, "unit": "h"}, {"measurement": "potential toxic target organs", "setting": "[4]; po", "result": "marrow hematopoietic system, thymus, heart, liver, lung, spleen, adrenal gland, ovary, and digestion system"}]}
